A value given as a limit tells only on which side of the number the result lay.

The target of test [1] is T1, Dimer of Gag-Pol polyprotein [489-587,Q496K,L499I,M525I,N526D,M535I,R546K,L552P,A560V,G562S,I573V,L579M,I582L] (Human immunodeficiency virus 1, UniProt P12497, A560V/G562S/I573V/I582L/L499I/L552P/L579M/M525I/M535I/N526D/Q496K/R546K).
T1 construct: 489-587
Description: Protease Inhibition Assay. The method, then:
(§1) Assay of HIV protease inhibition was performed by peptide cleavage using the substrate Val-Ser-Gln-Asn-beta-naphthylalanine*Pro-Ile-Val. Products of the cleavage reaction were quantified by HPLC detection, and data were fit to nonlinear least squares equations for determination of steady-state Michaelis-Menten kinetics.

In test [2] the target is T2, Dimer of Gag-Pol polyprotein [489-587,Q496K] (Human immunodeficiency virus 1, UniProt P12497, Q496K).
T2 construct: 489-587
The test is described as follows: Protease Inhibition Assay. To be noted: pH 5.5; 30 °C. The method, then: as §1

Broadly, the IC50 is the midpoint of a concentration-inhibition curve. Read a high IC50 as a need for much substance. In the case of `CC(C)(c1ncc(-c2ccc(Cl)cc2)o1)N1CCN(C[C@@H](O)C[C@@H](Cc2nnc(-c3ccccc3)o2)C(=O)N[C@H]2c3ccccc3OC[C@H]2O)[C@H](C(=O)NCC(F)(F)F)C1` [(2S)-4-{2-[5-(4-chlorophenyl)-1,3-oxazol-2-yl]propan-2-yl}-1-[(2S,4S)-2-hydroxy-4-{[(3S,4S)-3-hydroxy-3,4-dihydro-2H-1-benzopyran-4-yl]carbamoyl}-4-[(5-phenyl-1,3,4-oxadiazol-2-yl)methyl]butyl]-N-(2,2,2-trifluoroethyl)piperazine-2-carboxamide], the IC50 in test [1] was 0.18 nM; in test [2], less than 0.015 nM.

Turning to `CC(C)(c1ncc(-c2ccc(F)cc2)o1)N1CCN(C[C@@H](O)C[C@@H](Cc2nnco2)C(=O)N[C@H]2c3ccccc3OC[C@H]2O)[C@H](C(=O)NCC(F)(F)F)C1` [(2S)-4-{2-[5-(4-fluorophenyl)-1,3-oxazol-2-yl]propan-2-yl}-1-[(2S,4S)-2-hydroxy-4-{[(3S,4S)-3-hydroxy-3,4-dihydro-2H-1-benzopyran-4-yl]carbamoyl}-4-(1,3,4-oxadiazol-2-ylmethyl)butyl]-N-(2,2,2-trifluoroethyl)piperazine-2-carboxamide], the IC50 in test [1] amounted to 0.065 nM; in test [2], 0.024 nM.

As for `CCCc1nnc(C[C@H](C[C@H](O)CN2CCN(C(C)(C)c3ncc(-c4ccc(F)cc4)o3)C[C@H]2C(=O)NCC(F)(F)F)C(=O)N[C@H]2c3ccccc3OC[C@H]2O)o1` [(2S)-4-{2-[5-(4-fluorophenyl)-1,3-oxazol-2-yl]propan-2-yl}-1-[(2S,4S)-2-hydroxy-4-{[(3S,4S)-3-hydroxy-3,4-dihydro-2H-1-benzopyran-4-yl]carbamoyl}-4-[(5-propyl-1,3,4-oxadiazol-2-yl)methyl]butyl]-N-(2,2,2-trifluoroethyl)piperazine-2-carboxamide], the IC50 in test [1] turned out to be 0.19 nM; in test [2] it was 0.016 nM.

In test [2], `CC(C)(c1ncc(-c2ccc(F)cc2)o1)N1CCN(C[C@@H](O)C[C@@H](Cc2nnc(-c3ccccc3)o2)C(=O)N[C@H]2c3ccccc3OC[C@H]2O)[C@H](C(=O)NCC(F)(F)F)C1` [(2S)-4-{2-[5-(4-fluorophenyl)-1,3-oxazol-2-yl]propan-2-yl}-1-[(2S,4S)-2-hydroxy-4-{[(3S,4S)-3-hydroxy-3,4-dihydro-2H-1-benzopyran-4-yl]carbamoyl}-4-[(5-phenyl-1,3,4-oxadiazol-2-yl)methyl]butyl]-N-(2,2,2-trifluoroethyl)piperazine-2-carboxamide] had an IC50 of 0.02 nM.

For `CCCc1nnc(C[C@H](C[C@H](O)CN2CCN(C(C)(C)c3ncc(-c4ccc(Cl)cc4)o3)C[C@H]2C(=O)NCC(F)(F)F)C(=O)N[C@H]2c3ccccc3OC[C@H]2O)o1` [(2S)-4-{2-[5-(4-chlorophenyl)-1,3-oxazol-2-yl]propan-2-yl}-1-[(2S,4S)-2-hydroxy-4-{[(3S,4S)-3-hydroxy-3,4-dihydro-2H-1-benzopyran-4-yl]carbamoyl}-4-[(5-propyl-1,3,4-oxadiazol-2-yl)methyl]butyl]-N-(2,2,2-trifluoroethyl)piperazine-2-carboxamide], the values for the IC50 in test [1] and in test [2] were 0.12 nM and less than 0.015 nM, respectively.

In the case of `O=C(N[C@H]1c2ccccc2OC[C@H]1O)[C@H](Cc1nnco1)C[C@H](O)CN1CCN(Cc2ccc(-c3ccc(Cl)cc3)o2)C[C@H]1C(=O)NCC(F)(F)F` [(2S)-4-{[5-(4-chlorophenyl)furan-2-yl]methyl}-1-[(2S,4S)-2-hydroxy-4-{[(3S,4S)-3-hydroxy-3,4-dihydro-2H-1-benzopyran-4-yl]carbamoyl}-4-(1,3,4-oxadiazol-2-ylmethyl)butyl]-N-(2,2,2-trifluoroethyl)piperazine-2-carboxamide], the values for the IC50 in test [1] and in test [2] were 0.099 nM and 0.015 nM, respectively.

`CC(C)(c1ncc(-c2ccc(Cl)cc2)o1)N1CCN(C[C@@H](O)C[C@@H](Cc2nnco2)C(=O)N[C@H]2c3ccccc3OC[C@H]2O)[C@H](C(=O)NCC(F)(F)F)C1` [(2S)-4-{2-[5-(4-chlorophenyl)-1,3-oxazol-2-yl]propan-2-yl}-1-[(2S,4S)-2-hydroxy-4-{[(3S,4S)-3-hydroxy-3,4-dihydro-2H-1-benzopyran-4-yl]carbamoyl}-4-(1,3,4-oxadiazol-2-ylmethyl)butyl]-N-(2,2,2-trifluoroethyl)piperazine-2-carboxamide]: the IC50 is 0.043 nM in test [1] and less than 0.015 nM in test [2].

In test [2], `O=C(N[C@H]1c2ccccc2OC[C@H]1O)[C@H](Cc1nnc(-c2ccccc2)o1)C[C@H](O)CN1CCN(Cc2ccc(-c3ccc(Cl)cc3)o2)C[C@H]1C(=O)NCC(F)(F)F` [(2S)-4-{[5-(4-chlorophenyl)furan-2-yl]methyl}-1-[(2S,4S)-2-hydroxy-4-{[(3S,4S)-3-hydroxy-3,4-dihydro-2H-1-benzopyran-4-yl]carbamoyl}-4-[(5-phenyl-1,3,4-oxadiazol-2-yl)methyl]butyl]-N-(2,2,2-trifluoroethyl)piperazine-2-carboxamide] displayed an IC50 of 0.019 nM.

For the compound `Cc1nnc(C[C@H](C[C@H](O)CN2CCN(C(C)(C)c3ncc(-c4ccc(F)cc4)o3)C[C@H]2C(=O)NCC(F)(F)F)C(=O)N[C@H]2c3ccccc3OC[C@H]2O)o1` [(2S)-4-{2-[5-(4-fluorophenyl)-1,3-oxazol-2-yl]propan-2-yl}-1-[(2S,4S)-2-hydroxy-4-{[(3S,4S)-3-hydroxy-3,4-dihydro-2H-1-benzopyran-4-yl]carbamoyl}-4-[(5-methyl-1,3,4-oxadiazol-2-yl)methyl]butyl]-N-(2,2,2-trifluoroethyl)piperazine-2-carboxamide], the IC50 was determined as 0.19 nM in test [1] and 0.027 nM in test [2].

In test [2], `COc1cncc(-c2cnc(C(C)(C)N3CCN(C[C@@H](O)C[C@@H](Cc4nnc(-c5ccccc5)o4)C(=O)N[C@H]4c5ccccc5OC[C@H]4O)[C@H](C(=O)NCC(F)(F)F)C3)o2)c1` [(2S)-1-[(2S,4S)-2-hydroxy-4-{[(3S,4S)-3-hydroxy-3,4-dihydro-2H-1-benzopyran-4-yl]carbamoyl}-4-[(5-phenyl-1,3,4-oxadiazol-2-yl)methyl]butyl]-4-{2-[5-(5-methoxypyridin-3-yl)-1,3-oxazol-2-yl]propan-2-yl}-N-(2,2,2-trifluoroethyl)piperazine-2-carboxamide] yielded an IC50 of 0.48 nM.

`CCCc1nnc(C[C@H](C[C@H](O)CN2CCN(Cc3ccc(-c4ccc(Cl)cc4)o3)C[C@H]2C(=O)NCC(F)(F)F)C(=O)N[C@H]2c3ccccc3OC[C@H]2O)o1` [(2S)-4-{[5-(4-chlorophenyl)furan-2-yl]methyl}-1-[(2S,4S)-2-hydroxy-4-{[(3S,4S)-3-hydroxy-3,4-dihydro-2H-1-benzopyran-4-yl]carbamoyl}-4-[(5-propyl-1,3,4-oxadiazol-2-yl)methyl]butyl]-N-(2,2,2-trifluoroethyl)piperazine-2-carboxamide] came in with an IC50 in test [2] of less than 0.015 nM.

As to `Cc1nnc(C[C@H](C[C@H](O)CN2CCN(Cc3ccc(-c4ccc(Cl)cc4)o3)C[C@H]2C(=O)NCC(F)(F)F)C(=O)N[C@H]2c3ccccc3OC[C@H]2O)o1` [(2S)-4-{[5-(4-chlorophenyl)furan-2-yl]methyl}-1-[(2S,4S)-2-hydroxy-4-{[(3S,4S)-3-hydroxy-3,4-dihydro-2H-1-benzopyran-4-yl]carbamoyl}-4-[(5-methyl-1,3,4-oxadiazol-2-yl)methyl]butyl]-N-(2,2,2-trifluoroethyl)piperazine-2-carboxamide], the IC50 in test [2] was less than 0.015 nM.

With `COc1cncc(-c2cnc(C(C)(C)N3CCN(C[C@@H](O)C[C@@H](Cc4nnco4)C(=O)N[C@H]4c5ccccc5OC[C@H]4O)[C@H](C(=O)NCC(F)(F)F)C3)o2)c1` [(2S)-1-[(2S,4S)-2-hydroxy-4-{[(3S,4S)-3-hydroxy-3,4-dihydro-2H-1-benzopyran-4-yl]carbamoyl}-4-(1,3,4-oxadiazol-2-ylmethyl)butyl]-4-{2-[5-(5-methoxypyridin-3-yl)-1,3-oxazol-2-yl]propan-2-yl}-N-(2,2,2-trifluoroethyl)piperazine-2-carboxamide], the IC50 worked out at 7.4 nM in test [1] and 0.24 nM in test [2].

Compound `CCCc1nnc(C[C@H](C[C@H](O)CN2CCN(C(C)(C)c3ncc(-c4cncc(OC)c4)o3)C[C@H]2C(=O)NCC(F)(F)F)C(=O)N[C@H]2c3ccccc3OC[C@H]2O)o1` [(2S)-1-[(2S,4S)-2-hydroxy-4-{[(3S,4S)-3-hydroxy-3,4-dihydro-2H-1-benzopyran-4-yl]carbamoyl}-4-[(5-propyl-1,3,4-oxadiazol-2-yl)methyl]butyl]-4-{2-[5-(5-methoxypyridin-3-yl)-1,3-oxazol-2-yl]propan-2-yl}-N-(2,2,2-trifluoroethyl)piperazine-2-carboxamide] gave an IC50 in test [2] of 0.32 nM.

Turning to `COc1cncc(-c2cnc(C(C)(C)N3CCN(C[C@@H](O)C[C@@H](Cc4nnc(C)o4)C(=O)N[C@H]4c5ccccc5OC[C@H]4O)[C@H](C(=O)NCC(F)(F)F)C3)o2)c1` [(2S)-1-[(2S,4S)-2-hydroxy-4-{[(3S,4S)-3-hydroxy-3,4-dihydro-2H-1-benzopyran-4-yl]carbamoyl}-4-[(5-methyl-1,3,4-oxadiazol-2-yl)methyl]butyl]-4-{2-[5-(5-methoxypyridin-3-yl)-1,3-oxazol-2-yl]propan-2-yl}-N-(2,2,2-trifluoroethyl)piperazine-2-carboxamide], the figures for the IC50 in test [1] and in test [2] were 15 nM and 0.4 nM, respectively.

For the compound `Cc1nnc(C[C@H](C[C@H](O)CN2CCN(C(C)(C)c3ncc(-c4ccc(Cl)cc4)o3)C[C@H]2C(=O)NCC(F)(F)F)C(=O)N[C@H]2c3ccccc3OC[C@H]2O)o1` [(2S)-4-{2-[5-(4-chlorophenyl)-1,3-oxazol-2-yl]propan-2-yl}-1-[(2S,4S)-2-hydroxy-4-{[(3S,4S)-3-hydroxy-3,4-dihydro-2H-1-benzopyran-4-yl]carbamoyl}-4-[(5-methyl-1,3,4-oxadiazol-2-yl)methyl]butyl]-N-(2,2,2-trifluoroethyl)piperazine-2-carboxamide], the IC50 in test [1] was 0.06 nM; in test [2] it was 0.016 nM.
